Source: PMC12344293, “A new class of binding-protein dependent solute transporter exemplified by the TAXI-GltS system from Bordetella pertussis” (Communications Biology, 2025)

Tests used:
BP0403 [1] = target: T1, BP0403 (Bordetella pertussis, UniProt Q7VSK8, Y219A); experiment: intrinsic tyrosine fluorescence titration; type: binding
T1 sequence (Q7VSK8 208-503 Y219A): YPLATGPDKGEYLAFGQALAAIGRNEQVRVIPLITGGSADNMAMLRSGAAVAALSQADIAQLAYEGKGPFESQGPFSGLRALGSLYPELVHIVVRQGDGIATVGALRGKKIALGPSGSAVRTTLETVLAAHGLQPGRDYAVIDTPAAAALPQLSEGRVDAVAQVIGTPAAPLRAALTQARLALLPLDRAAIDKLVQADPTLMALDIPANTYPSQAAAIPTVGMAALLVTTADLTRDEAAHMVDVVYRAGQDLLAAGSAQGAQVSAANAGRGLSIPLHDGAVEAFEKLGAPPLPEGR

BP0403 [2] = target: T2, BP0403 (Bordetella pertussis, UniProt Q7VSK8); experiment: intrinsic tyrosine fluorescence titration (n = […]); DSF shift on full-length protein and SBP domain; type: binding
T2 construct: BP0403SBP (residues 208–503), isolated C-terminal SBP domain; full-length BP0403FL (without signal peptide) also shifted in DSF

BP0403 [3] = target: T3, BP0403 (Bordetella pertussis, UniProt Q7VSK8, Q263A); experiment: intrinsic tyrosine fluorescence titration; type: binding
T3 sequence (Q7VSK8 208-503 Q263A): T1 sequence (Q7VSK8 208-503 Y219A)

[4] = target: the molecule itself; experiment: SEC; Superdex 200 Increase 10/300 GL, 0.5 ml/min, SEC buffer (50 mM Tris-HCl pH 8, 100 mM NaCl, 5% glycerol); IMAC eluate incubated 20 min at room temperature with 5 mM EDTA and 100 mM glycerol before loading; elution volume compared with a calibration curve of molecular weight standards

## N[C@@H](CCC(=O)O)C(=O)O [L-glutamate]
BP0403 [1]
  Kd: 31 ± 6 µM
BP0403 [2]
  Kd: 0.18 ± 0.032 µM
BP0403 [3]
  Kd: 45 ± 3 µM

B1: full-length BP0403 (BP0403FL) (natural protein, Bordetella pertussis, UniProt Q7VSK8 20-503, looked up)
chain: SRAPDTEILQRDVGQTLAATYGPDLFDIVALRRMGSATDSTAPPGQTRRVVYYDVVLGLKKDLTLGAWDQPGAAALVSLLGAGPRSISGVKSSGNAAGDQIVAHASAIYQRDAEQWVHVAPASFTATEAPSLDTGAPPPVTRQLLQTLEQITRSVPYSASSTAQHVVQQELERSVARINGRLARLQKGYPLATGPDKGEYLAFGQALAAIGRNEQVRVIPLITGGSADNMAMLRSGAAVAALSQADIAQLAYEGKGPFESQGPFSGLRALGSLYPELVHIVVRQGDGIATVGALRGKKIALGPSGSAVRTTLETVLAAHGLQPGRDYAVIDTPAAAALPQLSEGRVDAVAQVIGTPAAPLRAALTQARLALLPLDRAAIDKLVQADPTLMALDIPANTYPSQAAAIPTVGMAALLVTTADLTRDEAAHMVDVVYRAGQDLLAAGSAQGAQVSAANAGRGLSIPLHDGAVEAFEKLGAPPLPEGR
notes: Codon optimised synthetic gene; also called BP0403 wildtype; source: E. coli BL21 (DE3), pET151, purified (Ni-NTA, SEC)
[4]
  stoichiometry N: 2
